Results: patent publication US20250281507A1, “METHODS OF TREATING NEPHROTIC SYNDROME” (The Research Institute at Nationwide Children's Hospital, priority 2021, published 2025)
Where “and” joins values, the source holds several entries; their conditions need not be identical. Equal entries are not always repeated.

Columns and labels:
children with NS [1] = assay: Hospitalizations, edema, hypoglycemia and side effects on pioglitazone; type: in vivo, human
Description: In the following clinical studies, the efficacy and safety of adding pioglitazone to reduce proteinuria in children with NS was examined. All children with NS identified worldwide to have been treated with pioglitazone were included, with no patients excluded. Each patient had pioglitazone added to their other NS medications at the discretion of their treating pediatric nephrologist. All patient records were reviewed in a de-identified manner, with prior ethics committee approval at each institution. Data were analyzed based on defined time periods before and after the addition of pioglitazone. Patients were defined as having responded to pioglitazone (i.e., Responders) if their urine protein to creatinine ratio (UPCR, mg/mg) decreased from the period 0-1 month pre-pioglitazone to the period 0-1 month post-pioglitazone. Glomerular filtration rate estimation (eGFR) in patients <18 years was calculated using the revised Schwartz equation. In patients >18 years, eGFR was calculated as the mean of the revised Schwartz and CKD-EPI creatinine equations. Quantitative data, such as patient age, duration of NS, pioglitazone dosage, and outcomes of UPCR, TIS, and serum albumin, were summarized as means (standard errors of mean), while categorical data such as renal survival status were summarized as frequency (percent). Due to a small sample size, Responders and Non-responders were compared using Wilcoxon Rank Sum tests on quantitative variables and Fisher's exact tests on categorical variables. For both Responders and Non-responders, pre-pioglitazone to post-pioglitazone initiation changes in UPCR, TIS, and serum albumin levels were analyzed using Wilcoxon Signed Rank tests. Numbers of hospitalizations pre-pioglitazone and post-pioglitazone initiation were analyzed and compared using Poisson distributions. Statistical significance was assessed at both the 0.05 and 0.10 levels. All analyses were conducted using SPSS software ver. 26 (IBM, Armonk, NY, USA).

children with NS [2] = assay: Total Immunosuppression Score (TIS) before and after addition of pioglitazone; type: in vivo, human; design: % TIS reduction (0-1 mo) / % TIS reduction (5-7 mo) / % TIS reduction (0-1 mo), Mean (SEM) / % TIS reduction (5-7 mo), Mean (SEM): concentration or dose not given beside the values
Experimental: The reduction in overall immunosuppression can be quantified by comparing the “Total Immunosuppression Score” (TIS) prior to and after the addition of a TZD to the drug regimen (see FIG. 3 herein). The TIS is based on a combination of the number of immunosuppressive drugs being administered and the dose at which each drug is administered. The score for each drug is on a scale of 0 to 4, where: 0=no drug administered; 1=drug administered up to less than 25% of the standardized full dose; 2=drug administered between 25% and less than 50% of the standardized full dose; 3=drug administered between 50% and less than 75% of the standardized full dose; 4=drug administered between 75% and 100% of the standardized full dose. As an example, if five different immunosuppressive medicaments are co-administered to a subject each at their standardized full dose, the TIS=20.
For each patient, a Total Immunosuppression Score (TIS) (see Table 3) was calculated to quantitate overall immunosuppression. For each class of immunosuppressive drug administered during a given time period, a score of 0-4 was assigned based on the percentage of a full dose for each patient's body size (0=0%; 1=<25%; 2=≥25-<50%; 3=≥50-<75%: 4=≥75%).
Quantitative data, such as patient age, duration of NS, pioglitazone dosage, and outcomes of UPCR, TIS, and serum albumin, were summarized as means (standard errors of mean), while categorical data such as renal survival status were summarized as frequency (percent). Due to a small sample size, Responders and Non-responders were compared using Wilcoxon Rank Sum tests on quantitative variables and Fisher's exact tests on categorical variables. For both Responders and Non-responders, pre-pioglitazone to post-pioglitazone initiation changes in UPCR, TIS, and serum albumin levels were analyzed using Wilcoxon Signed Rank tests. Numbers of hospitalizations pre-pioglitazone and post-pioglitazone initiation were analyzed and compared using Poisson distributions. Statistical significance was assessed at both the 0.05 and 0.10 levels. All analyses were conducted using SPSS software ver. 26 (IBM, Armonk, NY, USA).

[3] = Patient 1 (Responder), pre-PIO 13
[4] = Patient 1 (Responder), vs 0-1 mo pre-PIO
[5] = Patient 2 (Responder), pre-PIO 12
[6] = Patient 2 (Responder), vs 0-1 mo pre-PIO
[7] = Patient 3 (Responder), pre-PIO 0
[8] = Patient 3 (Responder), vs 0-1 mo pre-PIO (TIS 0)
[9] = Patient 5 (Non-responder), pre-PIO 4
[10] = Patient 5 (Non-responder), vs 0-1 mo pre-PIO
[11] = Patient 6 (Responder), pre-PIO 2
[12] = Patient 7 (Non-responder), pre-PIO 3
[13] = Patient 7 (Non-responder), vs 0-1 mo pre-PIO
[14] = Patient 8 (Responder), pre-PIO 4
[15] = Patient 8 (Responder), vs 0-1 mo pre-PIO
[16] = mean of 5 Responders, pre-PIO 6.20

CCc1ccc(CCOc2ccc(CC3SC(=O)NC3=O)cc2)nc1 (stereo not drawn) [pioglitazone]
required hospitalizations (children with NS [1]; 5 Responders, post-pioglitazone, 11 pre-pioglitazone): none | side effects attributable to pioglitazone (children with NS [1]; Patient 1, 7-month PIO treatment, 15 then 30 mg QD): No side effects attributable to pioglitazone were noted | side effects attributable to pioglitazone (children with NS [1]; Patient 2, 4-month treatment, 15 mg QD): no side effects attributable to pioglitazone noted | side effects attributable to pioglitazone (children with NS [1]; Patient 3, 19-month course): No side effects attributable to pioglitazone were noted | side effects attributable to pioglitazone (children with NS [1]; Patient 4, 3 weeks of treatment, 7.5 mg QD): no side effects attributable to pioglitazone were noted | side effects attributable to pioglitazone (children with NS [1]; Patient 5, 2.5 years, 45 mg QD): No side effects attributable to pioglitazone were noted | side effects attributable to pioglitazone (children with NS [1]; Patient 6, 5-year course, 30 mg QD): No side effects attributable to pioglitazone were noted | side effects (reason for stopping pioglitazone) (children with NS [1]; Patient 7, 6 months, 15 then 30 mg QD): concerns of possible association with new-onset bruising, which resolved | side effects attributable to pioglitazone (children with NS [1]; Patient 8, 30-week course, 30 mg QD): No side effects attributable to pioglitazone were noted | reductions in hospitalizations for IV albumin infusions and diuresis (children with NS [1]; Responders): 100% | children with worsening edema after pioglitazone introduction (children with NS [1]; all 8 patients): 0% | hospitalizations for IV albumin infusions to manage NS-related edema (children with NS [1]; all 8 patients, 5-7 months post-pioglitazone, 13 in the 5-7 months pre-pioglitazone): 1 | adverse events attributable to pioglitazone (children with NS [1]; all patients, collective 136 months of drug exposure): no patients experienced any adverse events attributable to pioglitazone | pioglitazone-related hypoglycemia (children with NS [1]; all patients, observation period): no children with NS were noted to have pioglitazone-related hypoglycemia | mean TIS (children with NS [2]; Non-responders, before and after pioglitazone treatment): approximately 3.5 | Post-PIO TIS (0-1 mo) (children with NS [2]; [3]): 11 | Post-PIO TIS (5-7 mo) (children with NS [2]; [3]): 5 | % TIS reduction (0-1 mo) (children with NS [2]; [4]): 15% and 15.4% | % TIS reduction (5-7 mo) (children with NS [2]; [4]): 62% and 61.5% | Post-PIO TIS (0-1 mo) (children with NS [2]; [5]): 12 | Post-PIO TIS (5-7 mo) (children with NS [2]; [5]): 8 | % TIS reduction (0-1 mo) (children with NS [2]; [6]): 0% | % TIS reduction (5-7 mo) (children with NS [2]; [6]): 33% and 33.3% | Post-PIO TIS (0-1 mo) (children with NS [2]; [7]): 2 | Post-PIO TIS (5-7 mo) (children with NS [2]; [7]): 1 | % TIS reduction (0-1 mo) (children with NS [2]; [8]): −∞ | % TIS reduction (5-7 mo) (children with NS [2]; [8]): −∞ | TIS increase (children with NS [2]; Patient 4 (Non-responder), over the next 1 month): 133% | Post-PIO TIS (0-1 mo) (children with NS [2]; Patient 4 (Non-responder), pre-PIO 3): 7 | % TIS reduction (0-1 mo) (children with NS [2]; Patient 4 (Non-responder), vs 0-1 mo pre-PIO): −133% | Post-PIO TIS (0-1 mo) (children with NS [2]; [9]): 4 | Post-PIO TIS (5-7 mo) (children with NS [2]; [9]): 4 | % TIS reduction (0-1 mo) (children with NS [2]; [10]): 0.00% | % TIS reduction (5-7 mo) (children with NS [2]; [10]): 0.00% | Post-PIO TIS (0-1 mo) (children with NS [2]; [11]): 2 | Post-PIO TIS (5-7 mo) (children with NS [2]; [11]): 2 | % TIS reduction (5-7 mo) (children with NS [2]; Patient 6 (Responder), vs 0-1 mo pre-PIO): 0.00% | Post-PIO TIS (0-1 mo) (children with NS [2]; [12]): 3 | Post-PIO TIS (5-7 mo) (children with NS [2]; [12]): 3 | % TIS reduction (0-1 mo) (children with NS [2]; [13]): 0.00% | % TIS reduction (5-7 mo) (children with NS [2]; [13]): 0.00% | Post-PIO TIS (0-1 mo) (children with NS [2]; [14]): 3 | Post-PIO TIS (5-7 mo) (children with NS [2]; [14]): 2 | % TIS reduction (0-1 mo) (children with NS [2]; [15]): 25% | % TIS reduction (5-7 mo) (children with NS [2]; [15]): 50% | decrease in overall exposure to immunosuppressive medications (mean TIS) (children with NS [2]; Responders, mean TIS 6.2 at 0-1 month pre- to 3.6 at 5-7 months post-pioglitazone): 42% | % TIS reduction (0-1 mo), Mean (SEM) (children with NS [2]; mean of 5 Responders): −∞ | % TIS reduction (5-7 mo), Mean (SEM) (children with NS [2]; mean of 5 Responders): −∞ | Post-PIO TIS (0-1 mo), Mean (SEM) (children with NS [2]; [16]): 6.00 | Post-PIO TIS (5-7 mo), Mean (SEM) (children with NS [2]; [16]): 3.6 | % TIS reduction (0-1 mo), Mean (SEM) (children with NS [2]; mean of Non-responders): −44.4% | Post-PIO TIS (5-7 mo), Mean (SEM) (children with NS [2]; mean of Non-responders (Patient 4 ESRD)): 3.50 | % TIS reduction (5-7 mo), Mean (SEM) (children with NS [2]; mean of Non-responders (Patient 4 NA)): 0.00% | Post-PIO TIS (0-1 mo), Mean (SEM) (children with NS [2]; mean of Non-responders, pre-PIO 3.33): 4.67
